Structures can show the parent of a compound that is named as a salt.

In the first assay the test system is ATGL-KO iPSCs. The experiment in a line: High throughput iPSC chemical screening, Oil Red O (ORO) lipid accumulation. On Z-score: test concentration or dose not given here. In kind it is cell-based, mouse. As to conditions: glycolytic switch compounds.
On to `CC1CC(OC(=O)c2ccccc2O)CC(C)(C)C1` (stereo not shown) [Homosalate], for which the “Rank in normalized ORO score from screen” value is 320.

Regarding `CN(C)CC/C=C1/c2ccccc2Sc2ccc(Cl)cc21` [Chlorprothixene hydrochloride], the “Rank in normalized ORO score from screen” value is reported as 223.

Regarding `O=C1O[C@H]([C@@H](O)CO)C(O)=C1O` [Ascorbic acid], the “Rank in normalized ORO score from screen” value worked out at 764.

The same assay, now with this note: normalized ORO level vs DMSO-treated cells; compound present during 7 days differentiation, 96-well; negative = decrease in lipid accumulation.
The molecule `CCCOc1ccc(C(=O)OCCN(CC)CC)cc1N` [Proparacaine hydrochloride] came in with a Z-score of 0.9367. Regarding `CC(=O)N[C@@H](CC(C)C)C(=O)O` [N-Acetyl-L-leucine], the Z-score was −1.2512. Molecule `COc1cc2c(cc1OC)C(C)NCC2.Cl` (stereo not shown) displayed a Z-score of 0.4756. In the case of `Nc1ccc(O)c(C(=O)O)c1` [Mesalamine], the Z-score is listed as −0.1803.

Take `CN(C)CCCN1c2ccccc2Sc2ccccc21` [Promazine hydrochloride]: the Z-score came out at 0.01386.

In the case of `CC1CC(OC(=O)c2ccccc2O)CC(C)(C)C1` (stereo not shown) [Homosalate], the Z-score is given as −0.7744. As to `O=C(O)/C=C/c1ccc(O)c(O)c1` [Caffeic acid], the Z-score is listed as −1.7446. With `CCNC1(c2cccs2)CCCCC1=O.Cl` (stereo not shown) [Tiletamine hydrochloride], the Z-score came out at 1.2858. The molecule `C[C@@H]1CC[C@@]2(OC1)O[C@H]1C[C@H]3[C@@H]4CC[C@@]5(C)C[C@@H](O)CC[C@]5(C)[C@H]4CC(=O)[C@]3(C)[C@H]1[C@@H]2C` [Hecogenin] had a Z-score of 0.9208. `C[C@]12CC[C@@H]3c4ccc(OS(=O)(=O)O)cc4CC[C@H]3[C@@H]1CCC2=O` [Estropipate] gave a Z-score of −1.7711. `Cc1nc2n(c(=O)c1CCN1CCC(c3noc4cc(F)ccc34)CC1)CCCC2` [Risperidone] registered a Z-score of −0.0533. In turn, `CN1CCC(=C2c3ccccc3CC(=O)c3sccc32)CC1` [Ketotifen fumarate] had a Z-score of 0.5681. In turn, `C[C@@H]1O[C@@H](O[C@H]2C[C@@H](O)[C@]3(CO)[C@H]4[C@H](O)C[C@]5(C)[C@@H](C6=CC(=O)OC6)CC[C@]5(O)[C@@H]4CC[C@]3(O)C2)[C@H](O)[C@H](O)[C@H]1O.O.O.O.O.O.O.O.O` [Strophantine octahydrate] returned a Z-score of 3.188. The molecule `CC(C)(C)NC[C@H](O)COc1ccccc1C1CCCC1` [Penbutolol sulfate] showed a Z-score of −0.627. `CCC1(CC)C(=O)C=CNC1=O` [Pyrithyldione] came in with a Z-score of 0.5042. In the case of `CCN(CC)CCOC(=O)C1(C2CCCCC2)CCCCC1` [Dicyclomine hydrochloride, reference compound], the Z-score is given as −2.1533.

Molecule `CC1=C2[C@H]3OC(=O)[C@@H](C)[C@@H]3CC[C@@]2(C)C=CC1=O` [alpha-Santonin] returned a Z-score of −0.8908. For `CNNCc1ccc(C(=O)NC(C)C)cc1` [Procarbazine hydrochloride], the Z-score worked out at 1.675. Regarding `CC[C@H](CC[C@@H](C)[C@H]1CC[C@H]2[C@@H]3CC=C4C[C@@H](O)CC[C@]4(C)[C@H]3CC[C@]12C)C(C)C` [Beta-sistosterol], the Z-score is reported as −0.8867. `COc1ccc2c(c1)c(CC(=O)OCC(=O)O)c(C)n2C(=O)c1ccc(Cl)cc1` [Acemetacin] came in with a Z-score of −0.9005.

`C1CCc2nnnn2CC1` [Pentylenetetrazole] came in with a Z-score of 0.6653.

Molecule `CO[C@@]1(NC(=O)C(C(=O)O)c2ccc(O)cc2)C(=O)N2C(C(=O)O)=C(CSc3nnnn3C)CO[C@@H]21` (stereo partly shown) [Moxalactam disodium salt] displayed a Z-score of −0.7608. Take `CC#C[C@]1(O)CC[C@H]2[C@@H]3CCC4=CC(=O)CCC4=C3[C@@H](c3ccc(N(C)C)cc3)C[C@@]21C` [Mifepristone]: the Z-score was −0.6348. In turn, `CC(=O)[C@@]1(O)CC[C@H]2[C@@H]3C[C@H](C)C4=CC(=O)C=C[C@]4(C)[C@@]3(F)[C@@H](O)C[C@@]21C` [Fluorometholone] showed a Z-score of 0.1317. The same measure, in the same setting: next, `CN(C)CC/C=C1/c2ccccc2Sc2ccc(Cl)cc21` [Chlorprothixene hydrochloride]: −0.9824; `CN1C(C(=O)Nc2ccccn2)=C(O)c2sccc2S1(=O)=O` [Tenoxicam]: −0.5016.

Turning to `CN1CCN2c3ccccc3Cc3ccccc3C2C1` (stereo not shown) [Mianserine hydrochloride], the Z-score was −1.3517. In turn, `C[N+]1(C)[C@@H]2CC[C@H]1C[C@@H](OC(=O)C(CO)c1ccccc1)C2` (stereo partly shown) [Methylatropine nitrate] yielded a Z-score of −1.1494.

`CCCNC(C)C(=O)Nc1ccccc1C` (stereo not shown) [Prilocaine hydrochloride] gave a Z-score of −1.2624. Still for that read-out and setting: next, `O=C(N[C@H](CO)[C@H](O)c1ccc([N+](=O)[O-])cc1)C(Cl)Cl` [Chloramphenicol]: 1.318. The same measure, in the same setting: next, `N[C@@H]1CONC1=O` [D-cycloserine]: −1.0332; `COc1ccc(C(Cl)=C(c2ccc(OC)cc2)c2ccc(OC)cc2)cc1` [Chlorotrianisene]: −0.6534; `CC(C)(C)c1ccc(C(O)CCCN2CCC(C(O)(c3ccccc3)c3ccccc3)CC2)cc1` (stereo not shown) [Terfenadine]: −0.8896.

On to `OCCN1CCN(CC/C=C2/c3ccccc3Sc3ccc(Cl)cc32)CC1` [Zuclopenthixol hydrochloride], for which the Z-score is −1.8038. Consider `O=C(O)Cc1ccc(-c2ccccc2)cc1` [Felbinac], for which the Z-score is −0.9529.

As to `CC(=O)NC(CC(=O)O)C(=O)O` (racemic) [Aspartic acid, N-acetyl (R,S)], the Z-score was 0.7559. Same read-out and setting: next, `C=CC(N)CCC(=O)O` (stereo not shown) [Vigabatrin]: −0.7771; `COc1cc([C@@H]2c3cc4c(cc3[C@@H](O[C@@H]3O[C@@H]5CO[C@@H](C)O[C@H]5[C@H](O)[C@H]3O)[C@H]3COC(=O)[C@H]23)OCO4)cc(OC)c1O` [Etoposide]: 39.4033.

`COc1ccccc1OCC(O)COC(N)=O` (stereo not shown) [Methocarbamol] gave a Z-score of −1.1429. In turn, `[H]/N=C(\N/C(=N/[H])NCCCCCCNC(=N)NC(=N)Nc1ccc(Cl)cc1)Nc1ccc(Cl)cc1` [Chlorhexidine] registered a Z-score of 24.4911.

The molecule `CN1CCN(C2=Nc3ccccc3Oc3ccc(Cl)cc32)CC1` [Loxapine succinate] showed a Z-score of −0.6976. Still for that read-out and setting: the figure for Pizotifen malate is −1.2994; for `Nc1ncnc2c1ncn2[C@@H]1O[C@H](CO)[C@@H](O)[C@@H]1O` [Vidarabine] it is −0.443. On to `CN1C(C(=O)Nc2ccccn2)=C(O)c2ccccc2S1(=O)=O` [Piroxicam], for which the Z-score is recorded as 0.7254. Turning to `NC[C@H]1O[C@H](O[C@H]2[C@H](O[C@@H]3O[C@H](CO)[C@@H](O)[C@H]3O)[C@@H](O)[C@H](N)C[C@@H]2N)[C@H](N)[C@@H](O)[C@@H]1O` [Ribostamycin sulfate salt], the Z-score was −0.4737.

The molecule `CN1CCC(OC(c2ccccc2)c2ccccc2)CC1` [Diphenylpyraline hydrochloride] gave a Z-score of 0.246. As to `CC(=O)c1ccc(S(=O)(=O)NC(=O)NC2CCCCC2)cc1` [Acetohexamide], the Z-score was 0.3584. Consider `CNCCC=C1c2ccccc2C=Cc2ccccc21` [Norcyclobenzaprine], for which the Z-score was −0.6046. Consider `C[C@]12CC[C@H]3[C@@H](CC[C@]4(O)C[C@@H](O)CC[C@]34C=O)[C@@]1(O)CC[C@@H]2C1=CC(=O)OC1` [Strophanthidin], for which the Z-score is given as 0.6732.

Alverine citrate salt came in with a Z-score of −0.9516.

`C/C(=C(\CCOP(=O)(O)O)SC(=O)c1ccccc1)N(C=O)Cc1cnc(C)nc1N` [Benfotiamine] gave a Z-score of −0.7979. For the molecule `C[n+]1cccc(C(=O)[O-])c1` [Trigonelline], the Z-score is −1.518. As for `O=c1c(O)c(-c2ccc(O)cc2)oc2cc(O)cc(O)c12` [Kaempferol], the Z-score was −0.0374. As to `CC(O)(P(=O)(O)O)P(=O)(O)O` [Etidronic acid, disodium salt], the Z-score is on record as −0.1368.

The molecule `CC12CC3CC(C)(C1)CC(N)(C3)C2` [Memantine Hydrochloride] returned a Z-score of −1.2487. The same measure, in the same setting: the figure for `O=C(Nc1ccc([N+](=O)[O-])cc1Cl)c1cc(Cl)ccc1O` [Niclosamide] is 25.4633. The molecule `C=CC1=C(C(=O)O)N2C(=O)[C@@H](NC(=O)/C(=N\OCC(=O)O)c3csc(N)n3)[C@H]2SC1` [Cefixime] returned a Z-score of 1.521.

For the molecule `O=C1O[C@H]([C@@H](O)CO)C(O)=C1O` [Ascorbic acid], the Z-score was 0.3599. Same read-out and setting: the figure for `CNCCC=C1c2ccccc2CCc2ccccc21` [Nortriptyline hydrochloride] is −1.28. The same measure, in the same setting: next, `Cl.OC1CCCCC1N1CCC(c2ccccc2)CC1` (stereo not drawn) [L(−)-vesamicol hydrochloride]: −1.6146; `CC[C@H]1OC(=O)[C@H](C)[C@@H](O[C@H]2C[C@@](C)(OC)[C@@H](O)[C@H](C)O2)[C@H](C)[C@@H](O[C@@H]2O[C@H](C)C[C@H](N(C)C)[C@H]2O)[C@](C)(O)C[C@@H](C)/C(=N\OCOCCOC)[C@H](C)[C@@H](O)[C@]1(C)O` [Roxithromycin]: −1.026. For the molecule `CCc1cc(C(N)=S)ccn1` [Ethionamide], the Z-score is on record as −0.9932. On to `CC(CN1c2ccccc2Sc2ccccc21)N(C)C` (stereo not shown) [Promethazine hydrochloride], for which the Z-score is reported as −1.4251. For `Cc1oncc1C(=O)Nc1ccc(C(F)(F)F)cc1` [Leflunomide], the Z-score is given as 1.258. Take `O=C(Nc1ccccc1)OCC(CN1CCCCC1)OC(=O)Nc1ccccc1` (stereo not shown) [Diperodon hydrochloride]: the Z-score was −0.6048. Same read-out and setting: next, `CCN1C[C@]2(COC)CC[C@H](O)[C@@]34C5C[C@@H]6[C@@H](OC)C[C@](O)(C(CC23)C14)C5[C@H]6OC(C)=O` (stereo partly shown) [Condelphine]: 0.3143; `Clc1ccc(Cn2c(CN3CCCC3)nc3ccccc32)cc1` [Clemizole hydrochloride]: −0.5701; `NC(=O)c1ccc[n+]([C@@H]2O[C@H](COP(=O)([O-])OP(=O)(O)OC[C@H]3O[C@@H](n4cnc5c(N)ncnc54)[C@H](O)[C@@H]3O)[C@@H](O)[C@H]2O)c1` [Nadide]: 0.1385. `O=C(O)c1cccnc1` [Niacin] gave a Z-score of −0.8285. In turn, `COc1ccc2[nH]c3c(c2c1)CCN=C3C` [Methoxy-6-harmalan] showed a Z-score of 1.201.
